Assay results taken from patent publication US11390621B2, “Chiral indole compounds and their use” (ARIAGEN, INC., priority 2019, dated 2022).

Experiments:
Format in all cases: in vivo
4T-1 = 4T-1 syngeneic mouse tumor model, ARI-164 / anti-PD-1 / combination (Example 49); details: 4T-1 model
Procedure: (§1) In this example, the in vivo anti-tumor efficacy of a combination of ARI-164 with an anti-PD-1 antibody was evaluated using a panel of seven subcutaneous syngeneic mouse tumor models.
(§2) Seven subcutaneous syngeneic mouse tumor models were generated by innoculating female BALB/C or C57BL/6 mice with cancer cells at their right lower or right front flank followed by randomization as detailed in Table 10 below.
(§3) A solution of a rat monoclonal anti-mouse PD-1 antibody (isotype IgG2a, κ) at a concentration of 6.61 mg/ml was obtained from BioXcell (InVivoMAb anti-mouse PD-1 (CD279), Clone RMP1-14, Cat #BE0146)) and store at 4° C. The antibody solution was diluted with PBS to obtain a 1 mg/ml dosing solution.
(§4) ARI-164 powder was stored at −20° C. The powder of the compound was dissolved in DMSO to obtain dosing solutions at 26.7 mg/ml for administration to mice at 40 mg/kg, respectively.
Seven studies using the seven subcutaneous syngeneic mouse tumor models were performed. In each study, 80 mice were enrolled and randomly allocated to eight different study groups, with 10 mice in each study group. The mean tumor size at randomization was approximately 80-120 mm^3 (around 100 mm^3). Randomization was performed based on “Matched distribution” randomization method (StudyDirector™ software, version 3.1.399.19). […] All the drugs and vehicle controls were injected to the mice intraperitoneally.
(§5) The data was collected and analyzed as described above in Example 48.

A20 = A20 syngeneic mouse tumor model, ARI-164 / anti-PD-1 / combination (Example 49)
Procedure: as §1, §2, §3, §4
(§6) Seven studies using the seven subcutaneous syngeneic mouse tumor models were performed. In each study, 80 mice were enrolled and randomly allocated to eight different study groups, with 10 mice in each study group. The mean tumor size at randomization was approximately 80-120 mm^3 (around 100 mm^3). Randomization was performed based on “Matched distribution” randomization method (StudyDirector™ software, version 3.1.399.19). […]
as §5

H22 = H22 syngeneic mouse tumor model, ARI-164 / anti-PD-1 / combination (Example 49)
Procedure: as §1, §2, §3, §4, §6, §5

LL/2 = LL/2 syngeneic mouse tumor model, ARI-164 / anti-PD-1 / combination (Example 49)
Procedure: as §1, §2, §3, §4, §6, §5

MC38 = MC38 syngeneic mouse tumor model, ARI-164 / anti-PD-1 / combination (Example 49)
Procedure: as §1, §2, §3, §4, §6, §5

[1] = intraperitoneal, anti-PD-1 10 mg/kg BIW, ARI-164 40 mg/kg QD

CC[C@H](O)c1csc(C(=O)c2c[nH]c3cc(F)ccc23)n1 [ARI-164, (S)-(6-Fluoro-1H-indol-3-yl)(4-(1-hydroxypropyl)thiazol-2-yl)methanone]
effect on tumor growth (in words) (4T-1; ARI-164 alone, 40 mg/kg i.p.): delay tumor growth
tumor growth inhibition (in words) (4T-1; combination with anti-PD-1 antibody, study day 31): statistically significant delta in tumor growth inhibition
TGI (%) (4T-1; [1]): 45.3%
tumor inhibition (in words) (A20; combination with anti-PD-1 antibody, study day 28): significant tumor inhibition
TGI (%) (A20; [1]): 28.1%
tumor inhibition (in words) (H22; combination with anti-PD-1 antibody, study day 24): significant tumor inhibition
TGI (%) (H22; [1]): 46.9%
tumor inhibition (in words) (LL/2; LL/2 model (FIG. 21F), combination with anti-PD-1 antibody, study day 32): tumor inhibition
TGI (%) (LL/2; LL/2 model, intraperitoneal, anti-PD-1 10 mg/kg BIW, ARI-164 40 mg/kg QD): 42.5%
tumor inhibition (in words) (MC38; combination with anti-PD-1 antibody, study day 27): significant tumor inhibition
TGI (%) (MC38; intraperitoneal, anti-PD-1 10 mg/kg BIW, ARI-164 160 mg/kg QD): 18.8%
